From patent US10939684B2, “Preparation of sulfonamide-containing antimicrobials and substrate treating compositions of sulfonamide-containing antimicrobials” (NANO SAFE COATINGS INCORPORATED, priority 2015, dated 2021)
“Also recorded” adds a separate entry of the source.

Columns and labels:
Format in all cases: cell-based
Arthrobacter spp. = assay: Large-droplet inoculation method, antimicrobial efficacy at solid-air interfaces; conditions: treated polystyrene; for Average / A (cfu) / B (cfu) / C (cfu): load 1.28E+08; for Average: average of A-C; for A (cfu): replicate A; for B (cfu): replicate B; for C (cfu): replicate C
Description: (§1) Large-droplet inoculation method (Ronan E. et al, Biofouling 2013, 29, 1087-1096) Many pathogens are able to remain viable during extended periods of desiccation on inanimate surfaces. Long-term survival of pathogens in the inanimate environment pose a significant risk for infection transmission and contamination in high-risk environments such as hospital rooms or food-processing plants. The large-droplet inoculation method was developed to simulate the deposition of bacterial species onto exposed surfaces and to determine the ability of these cells to survive desiccation.
(§2) For these tests, small surface coupons were first coated with the antimicrobial using the method described above. Bacterial test species were grown overnight in a shaking incubator and cultures
(§3) were washed twice to replace the growth media with sterile water. 100 μL aliquots of the prepared culture were then inoculated onto multiple coated surfaces and allowed to air-dry within a biological safety cabinet. Drying typically occurred 2-3 hours after inoculation, and surviving cells were enumerated immediately and 24 hours after drying. For enumeration, inoculated coupons were sacrificed in triplicate and placed inside separate tubes containing 5 mL of a 0.9% saline collection liquid. Each coupon was agitated vigorously for 1 minute with a bench-top vortex to transfer cells from the test surface to the collection liquid. Plate counts were then performed on serial dilutions of the collection liquid, and colony counts from triplicate treated surfaces were averaged and compared to colony counts from tests of untreated control surfaces carried out in parallel.
(§4) A range of bacterial species were used in these tests. Arthrobacter spp., a gram-positive lab strain originally isolated from indoor air was used in the bulk of the testing, as it is known to be highly resistant to desiccation and therefore was used as a model for desiccation-tolerant pathogens. Efficacy tests were also carried out against, for example, gram-negative Escherichia coli (E. coli) and gram-positive Staphylococcus aureus (S. aureus), since they all contain pathogenic strains and have been implicated in major nosocomial outbreaks. […] The following are the tabulated bacterial reduction data: […]

[1] = tested on: Escherichia coli (E. coli); assay: as above; conditions: for Average / A (cfu) / B (cfu) / C (cfu): E. coli, treated polyethylene, load 5.05E+07; for Average: average of A-C; for A (cfu): replicate A; for B (cfu): replicate B; for C (cfu): replicate C; for activity against E. coli (in words): treated polyethylene coupons, compared to untreated control (FIG. 6)
Description: as §1, §2, §3, §4

[2] = tested on: Staphylococcus aureus (S. aureus); assay: as above; conditions: for Average / A (cfu) / B (cfu) / C (cfu): S. aureus, treated polyethylene, load 8.30E+05; for Average: average of A-C; for A (cfu): replicate A; for B (cfu): replicate B; for C (cfu): replicate C; for activity against S. aureus (in words): treated polyethylene coupons, compared to untreated control (FIG. 6)
Description: as §1, §2, §3, §4

[3] = tested on: Arthrobacter spp. planktonic cells; assay: Static biofilm test in coated polyethylene test tubes, planktonic cell survival; conditions: 48 hours; for Average / A (cfu) / B (cfu) / C (cfu): planktonic cells; for Average: average of A-C; for A (cfu): replicate A; for B (cfu): replicate B; for C (cfu): replicate C; for activity against planktonic cells (in words): initial test and re-challenge (FIG. 9)
Protocol: (§5) The interior of polyethylene test tubes was coated with the sulfonamide QUAT antimicrobial similarly as in Example 32. Tubes were filled with 2.7 mL of growth media (3 g/L TSB) into which 300 μL of Arthrobacter spp. bacterial culture was inoculated. Planktonic cells were sampled after 48 hours of incubation and agitation by removing 100 μL aliquots from each tube. After 48 hours, the liquid in each tube was removed completely so that biofilm attachment to the interior of the tubes could be assessed. To test for biofilm attachment the tubes were first gently rinsed in a saline solution to remove any loosely attached or residual planktonic cells. Next, 1 mL of saline solution was added to each tube before the tubes were vortexed vigorously for 1 minute to transfer biofilm cells to the collection liquid. Plate counts were then performed on serial dilutions of this collection liquid. Planktonic and biofilm colony counts from triplicate coated tubes were averaged and compared to colony counts from tests of uncoated control tubes carried out in parallel. After 14 days of exposure to ambient air, the tubes used in the above test were subjected to a second static biofilm test as described above, without reapplying the antimicrobial. This test was performed to determine whether the antimicrobial effects of the coating persisted following repeated exposures.

[4] = tested on: Arthrobacter spp. biofilm cells; assay: Static biofilm test in coated polyethylene test tubes, biofilm cell survival; conditions: for Average / A (cfu) / B (cfu) / C (cfu): biofilm cells, 48 hours; for Average: average of A-C; for A (cfu): replicate A; for B (cfu): replicate B; for C (cfu): replicate C
Protocol: as §5

[5] = listed as 3-(4-benzoylphenoxy)-N,N-dimethyl-N-(3-(2,4,6-trimethylphenyl sulfonamido)propyl)
[6] = listed as 3-(4-benzoylphenoxy)-N,N-dimethyl-N-(3-(2,4,6-trimethylphenylsulfonamido)propyl)
[7] = initial test, treated polyethylene test tubes, load 7.75E+08
[8] = rechallenge after 14 days without reapplying, load 8.00E+08

Cc1cc(C)c(S(=O)(=O)NCCC[N+](C)(C)CCCOc2ccc(C(=O)c3ccccc3)cc2)c(C)c1.[Br-] [Example 3c, 3-(4-benzoylphenoxy)-N,N-dimethyl-N-(3-(2,4,6-trimethylphenylsulfonamido)propyl)propan-1-aminium bromide]
activity against Arthrobacter spp. (in words) (Arthrobacter spp.; compared to untreated control (FIG. 3)): eradicated within three hours; also recorded: excellent activity | Average (Arthrobacter spp.; 3 hours): 0.00E+00 cfu | A (cfu) (Arthrobacter spp.; 3 hours): 0.00E+00 cfu | B (cfu) (Arthrobacter spp.; 3 hours): 0.00E+00 cfu | C (cfu) (Arthrobacter spp.; 3 hours): 0.00E+00 cfu | Average (Arthrobacter spp.; 24 hours): 0.00E+00 cfu | A (cfu) (Arthrobacter spp.; 24 hours): 0.00E+00 cfu | B (cfu) (Arthrobacter spp.; 24 hours): 0.00E+00 cfu | C (cfu) (Arthrobacter spp.; 24 hours): 0.00E+00 cfu | Average ([1]; 3 hours): 0.00E+00 cfu | A (cfu) ([1]; 3 hours): 0.00E+00 cfu | B (cfu) ([1]; 3 hours): 0.00E+00 cfu | C (cfu) ([1]; 3 hours): 0.00E+00 cfu | Average ([1]; 24 hours): 0.00E+00 cfu | A (cfu) ([1]; 24 hours): 0.00E+00 cfu | B (cfu) ([1]; 24 hours): 0.00E+00 cfu | C (cfu) ([1]; 24 hours): 0.00E+00 cfu | activity against E. coli (in words) [1, 5]: excellent activity | activity against E. coli (in words) [1, 6]: eradicated within three hours | Average ([2]; 3 hours): 0.00E+00 cfu | A (cfu) ([2]; 3 hours): 0.00E+00 cfu | B (cfu) ([2]; 3 hours): 0.00E+00 cfu | C (cfu) ([2]; 3 hours): 0.00E+00 cfu | Average ([2]; 24 hours): 0.00E+00 cfu | A (cfu) ([2]; 24 hours): 0.00E+00 cfu | B (cfu) ([2]; 24 hours): 0.00E+00 cfu | C (cfu) ([2]; 24 hours): 0.00E+00 cfu | activity against S. aureus (in words) [2, 5]: excellent activity | activity against S. aureus (in words) [2, 6]: eradicated within three hours | Average [3, 7]: 0.00E+00 cfu | A (cfu) [3, 7]: 0.00E+00 cfu | B (cfu) [3, 7]: 0.00E+00 cfu | C (cfu) [3, 7]: 0.00E+00 cfu | Average [3, 8]: 0.00E+00 cfu | A (cfu) [3, 8]: 0.00E+00 cfu | B (cfu) [3, 8]: 0.00E+00 cfu | C (cfu) [3, 8]: 0.00E+00 cfu | activity against planktonic cells (in words) ([3]; treated polyethylene test tubes, listed as 3-(4-benzoylphenoxy)-N,N-dimethyl-N-(3-(2,4,6-trimethylphenyl sulfonamido)propyl)): excellent activity | activity against planktonic cells (in words) ([3]; treated polyethylene test tubes, listed as 3-(4-benzoylphenoxy)-N,N-dimethyl-N-(3-(2,4,6-trimethylphenylsulfonamido)propyl)): complete eradication | Average [4, 7]: 0.00E+00 cfu | A (cfu) [4, 7]: 0.00E+00 cfu | B (cfu) [4, 7]: 0.00E+00 cfu | C (cfu) [4, 7]: 0.00E+00 cfu | Average [4, 8]: 0.00E+00 cfu | A (cfu) [4, 8]: 0.00E+00 cfu | B (cfu) [4, 8]: 0.00E+00 cfu | C (cfu) [4, 8]: 0.00E+00 cfu | activity against biofilm cells / biofilm development (in words) ([4]; treated polyethylene test tubes, 48 hours (FIG. 10)): excellent activity
